In data set [1] the test system is orthotopic 4T1-Luc tumors. Kind of data set: STL-6014 PDT and metronomic Gemzar in mice bearing 4T1-Luc tumors in the mammary pad (Scheme 1): primary tumor, survival, lung metastases, re-challenge. In kind it is in vivo, Balb/c mice. On the procedure: (§1) • (i) Bacteriochlorophyll Derivatives—The Bchl derivatives and RGD-conjugates thereof were provided by Steba Biotech (Rehovot, Israel). […] Concentration was verified by spectrophotometric measurement. STL-7012 was provided as dipotassium salt. Working solution was prepared by dissolving STL-7012 K^+ salt in 5% mannitol solution (1 mg/ml). […] WST11 was supplied as a powder and kept in the dark at −20° C. Stock was prepared by dissolving WST11 in DDW containing 5% glucose and 0.67% mannitol, aliquoted and lyophilized. Working solution was reconstituted with DDW and the concentration of solution was confirmed spectrophotometrically. Alternatively, Clinical WST11 (batch: P00611, and 10-130611) was supplied as lyophilized formulation. Material was dissolved in 5% dextrose, aliquoted and stored at −20° C. At the day of treatment the aliquot was thawed, filtered and the concentration of solution was confirmed spectrophotometrically. • (ii) Chemotherapeutic drugs preparation and storage—Gemcitabine (GEM, Gemzar®, Lilly) was purchased from a local pharmacy as a powder, dissolved in saline to a concentration of 38 mg/ml, aliquoted and stored at −20° C. Aliquots were thawed, diluted with saline to a desired concentration and used on the same day at a dose of 75 mg/kg. Cyclophosphamide (CTX, Endoxan®, Baxter Oncology Gmbh, Germany) was purchased from a local pharmacy. A stock solution of 20 mg/ml was prepared by dissolving in 0.9% NaCl, aliquoted and stored at −20° C. Aliquots were thawed, diluted with saline if needed to a desired concentration and used on the same day prepared at indicated doses. • (iii) Murine cell lines—Mammary luciferase (luc)-labeled 4T1 cell line (4T1-Luc) was a kind gift from Dr. Zvi Granot (Faculty of Medicine, The Hebrew University of Jerusalem, Israel); melanoma B16-F10 cell line was obtained from the American Type Culture Collection (ATCC, Manassas, Va.); bladder MB49 cell line was a kind gift from James Allison (MSKCC, New York, USA), and luc-labeled MB49-cell line was established using the murine stem cell virus (MSCV)-puromycin-luc-GFP construct (kindly provided by Dr. Emily Cheng, Human Oncology and Pathogenesis Program, MSKCC). 4T1 and MB49 cells were maintained in DMEM medium and B16-F10 cells in RPMI medium supplemented with 1 mmol/L sodium pyruvate, 10% fetal calf serum (FCS), 250 μg/ml hygromycin, 0.06 mg/ml penicillin and 0.1 mg/ml streptomycin. The cells were grown as monolayer at 37° C. in a humidified atmosphere (5% CO2, 95% air). • (iv) Murine tumor models—Female, Balb/c mice (6-8 week old) were grafted either subcutaneously (s.c.) into the right hind leg or orthotopically with 1×10^6 4T1 cells suspended in 50 or 1000 PBS. For the rechallenge study, 2×10^5 4T1 cells were orthotopically grafted. For bladder cancer model, 5×10^4 of MB49 or MB49-luciferase cell line were s.c. injected into the right flank of C57B/6 male mice (7-8 weeks old, Taconic, Hudson, N.Y.) 15 days prior to VTP treatment. For the efficacy study of VTP in immune compromised mice, the same number of MB49 cells was injected in the flank of Rag^−/− on C57B/6 background or C57B/6 male mice (7-8 week old, Jackson Laboratory, Bar Harbor, Me.). […] Whole body imaging of luciferase-transfected tumors and metastases were recorded five minutes following 75 mg Kg^−1 intraperitoneal (i.p.) injection of D-luciferin with respective filter sets. • (vi) PDT treatment protocol: 4T1-Luc cells were grafted in the mammary pad of Balb/c mice. […]

Data set [2] has as its system splenic immune cells of 4T1-bearing mice. Description: FACS profile of splenic immune cell populations in 4T1-bearing mice after STL-6014 PDT and Gemzar. It counts as in vivo. On the procedure:
as §1

Data set [3] deals with s.c. 4T1-luc breast tumors. Description: WST11 VTP with or without single dose CTX in mice bearing s.c. 4T1-luc tumors in the hind leg (Scheme 4). In kind it is in vivo, Balb/c mice. The note with it: CTX 50 or 150 mg/kg alone; WST11 VTP at low light intensity (100 mW/cm^2) alone; or combination. The procedure:
(§2) • (i) Bacteriochlorophyll Derivatives—The Bchl derivatives and RGD-conjugates thereof were provided by Steba Biotech (Rehovot, Israel). […] Concentration was verified by spectrophotometric measurement. STL-7012 was provided as dipotassium salt. Working solution was prepared by dissolving STL-7012 K^+ salt in 5% mannitol solution (1 mg/ml). […] WST11 was supplied as a powder and kept in the dark at −20° C. Stock was prepared by dissolving WST11 in DDW containing 5% glucose and 0.67% mannitol, aliquoted and lyophilized. Working solution was reconstituted with DDW and the concentration of solution was confirmed spectrophotometrically. Alternatively, Clinical WST11 (batch: P00611, and 10-130611) was supplied as lyophilized formulation. Material was dissolved in 5% dextrose, aliquoted and stored at −20° C. […] Aliquots were thawed, diluted with saline to a desired concentration and used on the same day at a dose of 75 mg/kg. Cyclophosphamide (CTX, Endoxan®, Baxter Oncology Gmbh, Germany) was purchased from a local pharmacy. A stock solution of 20 mg/ml was prepared by dissolving in 0.9% NaCl, aliquoted and stored at −20° C. Aliquots were thawed, diluted with saline if needed to a desired concentration and used on the same day prepared at indicated doses. • (iii) Murine cell lines—Mammary luciferase (luc)-labeled 4T1 cell line (4T1-Luc) was a kind gift from Dr. Zvi Granot (Faculty of Medicine, The Hebrew University of Jerusalem, Israel); melanoma B16-F10 cell line was obtained from the American Type Culture Collection (ATCC, Manassas, Va.); bladder MB49 cell line was a kind gift from James Allison (MSKCC, New York, USA), and luc-labeled MB49-cell line was established using the murine stem cell virus (MSCV)-puromycin-luc-GFP construct (kindly provided by Dr. Emily Cheng, Human Oncology and Pathogenesis Program, MSKCC). 4T1 and MB49 cells were maintained in DMEM medium and B16-F10 cells in RPMI medium supplemented with 1 mmol/L sodium pyruvate, 10% fetal calf serum (FCS), 250 μg/ml hygromycin, 0.06 mg/ml penicillin and 0.1 mg/ml streptomycin. The cells were grown as monolayer at 37° C. in a humidified atmosphere (5% CO2, 95% air). • (iv) Murine tumor models—Female, Balb/c mice (6-8 week old) were grafted either subcutaneously (s.c.) into the right hind leg or orthotopically with 1×10^6 4T1 cells suspended in 50 or 1000 PBS. […] Whole body imaging of luciferase-transfected tumors and metastases were recorded five minutes following 75 mg Kg^−1 intraperitoneal (i.p.) injection of D-luciferin with respective filter sets. • (vi) PDT treatment protocol: 4T1-Luc cells were grafted in the mammary pad of Balb/c mice. […] Ablation of primary tumors was assessed every 7 days by imaging the tumor's luciferase-mediated bioluminescence signal, using IVIS.

Data set [4] deals with Foxp3+ Treg, CD8+ T cells, G-MDSC/neutrophils. It counts as in vivo. On the procedure:
as §2

In data set [5] the test system is orthotopic 4T1-Luc breast tumors. Kind of data set: Whole-body NIR fluorescence imaging of accumulation and clearance in 4T1 tumor bearing mice. In kind it is in vivo. As to conditions: i.v. The procedure: • (i) Bacteriochlorophyll Derivatives—The Bchl derivatives and RGD-conjugates thereof were provided by Steba Biotech (Rehovot, Israel). […] Concentration was verified by spectrophotometric measurement. STL-7012 was provided as dipotassium salt. Working solution was prepared by dissolving STL-7012 K^+ salt in 5% mannitol solution (1 mg/ml). […] WST11 was supplied as a powder and kept in the dark at −20° C. Stock was prepared by dissolving WST11 in DDW containing 5% glucose and 0.67% mannitol, aliquoted and lyophilized. Working solution was reconstituted with DDW and the concentration of solution was confirmed spectrophotometrically. Alternatively, Clinical WST11 (batch: P00611, and 10-130611) was supplied as lyophilized formulation. Material was dissolved in 5% dextrose, aliquoted and stored at −20° C. […] Aliquots were thawed, diluted with saline to a desired concentration and used on the same day at a dose of 75 mg/kg. […] Whole body imaging of luciferase-transfected tumors and metastases were recorded five minutes following 75 mg Kg^−1 intraperitoneal (i.p.) injection of D-luciferin with respective filter sets. • (vi) PDT treatment protocol: 4T1-Luc cells were grafted in the mammary pad of Balb/c mice. […] Ablation of primary tumors was assessed every 7 days by imaging the tumor's luciferase-mediated bioluminescence signal, using IVIS.

Regarding “3^1-oxo-15-methoxycarbonylmethyl-Rhodobacteriochlorin 13^1-(2-sulfoethyl)amide-17^3-(cycloRGDfK) amide potassium salt [STL-6014]”, in data set [1] (120 days follow up, monotherapy), the “survival compared to control (Kaplan-Meier)” value is reported as “did not show any significant survival difference”. For the same compound, the “animals with primary tumor regrowth” value in data set [1] (day 30 post treatment) is given as 82%. In data set [2] (first week post treatment), the “percentage of G-MDSC/neutrophils and M-MDSC in spleen compared to control” value is listed as “significantly reduced”. Further, the “effect on Treg populations in spleen compared with controls” value in data set [2] (mouse, in vivo) is given as “Much smaller effects”.

Turning to `O=P1(N(CCCl)CCCl)NCCCO1` (stereo not shown) [CTX, Cyclophosphamide], the primary tumor growth entry in data set [3] is “unable to suppress primary tumor growth”. In addition, the “number of cells in the draining lymph nodes and spleens” value in data set [4] (low dose CTX three days prior VTP, on the VTP day) was “reduced”. Further, the “tumor infiltration by regulatory Foxp3+ T cells” value in data set [4] (three days after CTX administration) is reported as “significantly reduces”. Further, the “G-MDSC/neutrophils in the tumor microenvironment” value in data set [4] (three days post low dose CTX (VTP day)) is reported as “reduced”.

For `CC[C@H]1c2cc3[nH]c(c(CC(=O)OC)c4nc(cc5[nH]c(cc(n2)[C@@H]1C)c(C(C)=O)c5C)[C@@H](C)[C@@H]4CCC(=O)O)c(C(=O)NCCS(=O)(=O)[O-])c3C.[K+]` [STL-7012, 3^1-oxo-15-methoxycarbonylmethyl-Rhodobacteriochlorin 13^1-(2-sulfoethyl) amide dipotassium salt], the clearance result in data set [5] is reported as “cleared through the liver within a few hours of injection”. Besides, in data set [5] (STL-6014 7.5 mg/kg, STL-7012 9.5 mg/kg), the “accumulation in the tumor (NIR fluorescence)” value is recorded as “did not accumulate in the tumor”.

The record behind these values is patent US11278555B2, “Combinational therapies for treatment of cancer comprising a bacteriochlorophyll derivative” (Yeda Research and Development Co. Ltd., priority 2016, dated 2022).
